Assay results reported in US5935829A, “Mutation assays involving blood cells that metabolize toxic substances” (priority 1992, dated 1999).
Like-named read-outs stand apart in the source and are kept apart here.

Tests used:
[1] = tested on: AHH activity of AHH-1 cells; assay type: cell-based, human
Experimental: (§1) The quantity of 3-hydroxy BaP was measured by fluorescent intensity activated by a light wavelength of 396 nm and measured at 522 nm using a spectrofluorimeter (Farrand Model Mk-1, Valhalla, N.Y.).
After growth of the cells in culture medium with gentamycin and kanamycin, the cells were plated in microtiter plates at a density of about 0.2 cells per well. Colonies were isolated and characterized for BaP-induced growth inhibition. A total of 47 colonies were isolated and contacted with 40 uM BaP. In its normal state, BaP is not highly cytotoxic or mutagenic; however, if metabolized by oxidative activity into one or more epoxides or phenols, the metabolites tend to be toxic and mutagenic.
6-TG resistant clones were characterized for AHH activity by measuring the rate of production of 3-OH benzopyrene, a fluorescent metabolite of BaP which is created by AHH activity.

in vitro [2] = assay type: cell-based, human; settings: human, g6-a5 cells, G6-A5 clone, read-out: Relative Survival
Text: (§2) Following the benzo(ghi)perylene selection and after plating in microtitre plates, colonies were isolated and analyzed for MFO activity and PE. […] Several of these subclones were used to detect the mutagenic activity of benzo(a)pyrene, a chemical known to require oxidative metabolism for mutagenicity.

G6-A5 cells = assay: in vitro; assay type: cell-based, human; settings: several subclones, exposed directly
Text: as §2

[3] = tested on: AHH activity of 6-TG resistant AHH-1 clones; assay: AHH activity induced by BaP in AHH-1 cells resistant to 6-TG; assay type: cell-based, human; settings: 10 μM BaP, 24 hours
Experimental: as §1, with “3-hydroxy BaP per 10^6 cells per minute. The” for “The”, “N.Y.). This could be induced to about 0.3 pmole of 3-hydroxy BaP per 10^6 cells per minute.” for “N.Y.).”
6-TG resistant clones were characterized for AHH activity by measuring the rate of production of 3-OH benzopyrene, a fluorescent metabolite of BaP which is created by AHH activity. […].

in vitro [4] = settings: human, ahh-1 cells, RELATIVE SURVIVAL; for viability at 48 h, 10 µM: 10 μM × 48 hours; for viability at 48 h, 20 µM: 20 μM × 48 hours
human cells = settings: literature ref. 15; cited from earlier work
[5] = 0.3 μM × 24 hours, induction BP

c1ccc2c(c1)cc1ccc3cccc4ccc2c1c34 [BaP, benzo(a)pyrene]
AHH Activity Induced by B(α)P [1]: 2.04 pmole 3OHBP/10^6 cells/minute
induction of AHH activity [1]: inducers
viability at 24 h (in vitro [2]; 0.1 μg/ml): 37%
viability at 24 h (in vitro [2]; 0.2 μg/ml, 24 hour treatment): 41%
mutation of G6-series subclones to a statistically significant degree (G6-A5 cells): mutated to a statistically significant degree
AHH Activity Induced by B(α)P ([3]; clone BP-1): 1.64 pmole 3OHBP/10^6 cells/minute
AHH Activity Induced by B(α)P ([3]; clone BP-2): 2.36 pmole 3OHBP/10^6 cells/minute
AHH Activity Induced by B(α)P ([3]; clone BP-3): 1.88 pmole 3OHBP/10^6 cells/minute
AHH Activity Induced by B(α)P ([3]; clone BP-4): 2.76 pmole 3OHBP/10^6 cells/minute
AHH Activity Induced by B(α)P ([3]; clone BP-5): 0.72 pmole 3OHBP/10^6 cells/minute
AHH Activity Induced by B(α)P ([3]; clone BP-6): 1.88 pmole 3OHBP/10^6 cells/minute
AHH Activity Induced by B(α)P ([3]; clone BP-7): 1.84 pmole 3OHBP/10^6 cells/minute
AHH Activity Induced by B(α)P ([3]; mean TG^R clones): 1.87 pmole 3OHBP/10^6 cells/minute
MUTANT FRACTION × 10^6, MEAN ± STD.DEV. (AHH-1 cells; [5]): 3.4 ± 0.5 × 10^6
MUTANT FRACTION × 10^6, MEAN ± STD.DEV. (AHH-1 cells; 1 μM × 24 hours, induction BP): 4.9 ± 0.9 × 10^6
MUTANT FRACTION × 10^6, MEAN ± STD.DEV. (AHH-1 cells; 3 μM × 24 hours, induction BP): 6.1 ± 1 × 10^6
MUTANT FRACTION × 10^6, MEAN ± STD.DEV. (AHH-1 cells; 10 μM × 24 hours, induction BP): 12.7 ± 1.5 × 10^6
MUTANT FRACTION × 10^6, MEAN ± STD.DEV. (AHH-1 cells; 30 μM × 24 hours, induction BP): 18.2 ± 2.1 × 10^6
viability at 24 h, 0.3 µM (in vitro [4]; [5]): 87%
viability at 24 h, 1 µM (in vitro [4]; 1 μM × 24 hours, induction BP): 102%
viability at 24 h, 3 µM (in vitro [4]; 3 μM × 24 hours, induction BP): 74%
viability at 24 h, 10 µM (in vitro [4]; 10 μM × 24 hours, induction BP): 82%
viability at 24 h, 30 µM (in vitro [4]; 30 μM × 24 hours, induction BP): 75%

c1cc2cccc3c4cccc5cccc(c(c1)c23)c54 [Per, perylene]
MUTANT FRACTION × 10^6, MEAN ± STD.DEV. (AHH-1 cells; 10 μM × 48 hours, induction BNF): 2.7 ± 0.6 × 10^6
MUTANT FRACTION × 10^6, MEAN ± STD.DEV. (AHH-1 cells; 10 μM × 48 hours, induction none): 3.2 ± 0.75 × 10^6
MUTANT FRACTION × 10^6, MEAN ± STD.DEV. (AHH-1 cells; 20 μM × 48 hours, induction BNF): 2.7 ± 0.6 × 10^6
MUTANT FRACTION × 10^6, MEAN ± STD.DEV. (AHH-1 cells; 20 μM × 48 hours, induction none): 1.9 ± 0.5 × 10^6
viability at 48 h, 10 µM (in vitro [4]; induction BNF): 89%
viability at 48 h, 10 µM (in vitro [4]; induction none): 93%
viability at 48 h, 20 µM (in vitro [4]; induction BNF): 89%
viability at 48 h, 20 µM (in vitro [4]; induction none): 95%
mutagenicity for human cells (human cells): not a mutagen for human cells
